Data set [1] has as its system severely depressed patients with suicidal thoughts and behaviors. The data set can be described thus: Phase II trial: Clinical Global Impression (CGI) severity. Format: in vivo, human. As to conditions: n = 40 per arm. The source says: (§1) Ninety-three patients were screened and 80 subjects were identified who were between the ages of 18 to 75, inclusive, and met the criteria for major depressive disorder (MDD), dysthymia, depression not otherwise specified and/or borderline personality disorder as defined by Diagnostic and Statistical Manual-IV-TR and confirmed by the Mini International Neuropsychological Interview (MINI).
(§2) Selected subjects scored >15 on the Montgomery-Åsberg Depression Rating Scale and >8 on the Sheehan Suicidality Tracking Scale (S-STS) at Screening and Baseline Visits. […]
(§3) Efficacy was measured by taking S-STS (Sheehan-Suicidality Tracking Scale (Sheehan, 2009)) scores at Baseline and at each visit for 4 weeks of treatment or until end-of-treatment and measuring the change from baseline in the S-STS total score at week 4. […]
(§4) All significance tests were two-sided. Statistical significance was assessed at the p≦0.05 level for main effects, and significance at the p≦0.10 level was considered a trend indicating efficacy. […]

For data set [2] the test system is unchanged. In words: Phase II trial: Montgomery-Åsberg Depression Rating Scale (MADRS). Format: in vivo, human. As to conditions: all patients assigned, n = 40.
Source text: as §1, §2, §3, §4

Data set [3] has the same test system. As to conditions: of 40 patients in the arm.
Description: (§6) All subjects received 20 mg citalopram and were randomized to either 300 mg lithium carbonate/day or placebo for 4 weeks of Double-Blind Treatment. Patients were instructed to take one capsule from the bottle and two tablets from the blister card one time daily, in the morning, orally with food. If the patient was unable to tolerate morning dosing, patient may be switched to evening dosing as long as there was 24 hours minimum between doses.
Subjects were considered to have completed the study if they completed all of the visits.
For data set [4] the test system is unchanged. In words: Phase II trial: Sheehan Suicidality Tracking Scale (S-STS). In kind it is in vivo, human.
Source text: as §1
Selected subjects scored >15 on the Montgomery-Åsberg Depression Rating Scale and >8 on the Sheehan Suicidality Tracking Scale (S-STS) at Screening and Baseline Visits. Subjects were excluded if they had current, unstable and significant medical conditions (a history of unstable Thyroid disorders, a history of seizure disorders, tumors or other central nervous system (CNS) condition that predisposes the patient to risk of seizure), pregnant or lactating, had any abnormal clinical laboratory test results, or ECG results which were judged by the investigator as clinically significant, a history of intolerance or hypersensitivity to citalopram, other SSRIs, or lithium, a history or current diagnosis of bipolar mood disorder, psychosis, schizophrenia or dementia, were currently involved in another clinical trial or had participated in another clinical trial less than thirty days prior, or had current or prior treatment with citalopram or escitalopram. Psychotropic medications (anti-psychotics, anti-depressants, and mood stabilizers) were excluded during the treatment phase and required a twenty-four hour washout period prior to the first dose of study medication. Diuretics, analgesics, benzodiazepines and opiates were used with caution.
(§5) Efficacy was measured by taking S-STS (Sheehan-Suicidality Tracking Scale (Sheehan, 2009)) scores at Baseline and at each visit for 4 weeks of treatment or until end-of-treatment and measuring the change from baseline in the S-STS total score at week 4. Secondary efficacy variables were the BHS (Beck Hopelessness Scale (Beck, Steer, 1988)), BSS (Beck Scale for Suicide Ideation (Beck and Steer, 1991)), C-SSRS (Columbia Suicide Severity Rating Scale (Posner et al., 2009) and CGI (Clinical Global Impression Study (Guy, 1976)) changes at week 4. Safety measures were collected and evaluated throughout the trial. These included Adverse Events (AEs), laboratory parameters, physical examinations, ECGs and vital signs and weight measurements. Adverse events were any untoward medical event occurring in a subject administered study drug, irrespective of whether it has a causal relationship to the study drug. An adverse event could therefore be any unfavorable or unintended sign (including abnormal laboratory findings, for example), symptom, or disorder temporarily associated with study drug, whether or not considered related to the study drug. Adverse Events among the 80 participants were as follows:
All significance tests were two-sided. Statistical significance was assessed at the p≦0.05 level for main effects, and significance at the p≦0.10 level was considered a trend indicating efficacy. Missing values were handled using the last observation carried forward (LOCF) technique. The primary analysis population for inference was the intention-to-treat (ITT) population.

Data set [5] has the same test system. The data set can be described thus: Phase II trial: Beck Scale for Suicide Ideation (BSS). Format: in vivo, human. As to conditions: n = 40 per arm.
Source text: as §1, §2, §3, §4

Data set [6] has the same test system. In words: Phase II trial: Beck Hopelessness Scale (BHS). Format: in vivo, human. As to conditions: n = 40 per arm.
Source text: as §1, §2, §3, §4

For data set [7] the test system is unchanged. In words: Phase II trial: adverse events. Format: in vivo, human. How it is done: Eligible subjects were evaluated for safety parameters prior to and throughout the screening through a variety of methods including an ECG, physical exam, vital sign taking and clinical laboratory testing. A standard 12-lead ECG was performed at Screening (Visit 1) and at Week 4 (Visit 6 or Early Termination Visit). Physical examinations included determination of general appearance, mental status, skin, neck (including thyroid), eyes, ears, nose, throat, heart, lungs, abdomen, lymph nodes, musculoskeletal system, and nervous system. Vital signs included respiratory rate, radial pulse and systolic and diastolic blood pressures. Vital signs were collected in the seated position. Clinical Laboratory Testing Parameters included a Complete Metabolic Panel (Na, K, Cl, CO2, Glu, BUN, Cr, Ca, TP, Alb, TBili, AP, AST, ALT), Hematology CBC (Hgb, Hct, RBC, WBC, Pit, Diff) and TSH (w/reflex T-4). Serum HCG is performed for all females, and Urine Analysis is completed for all subjects.
as §5, with “follows: […]” for “follows:”

Data set [8] in a line: Phase II trial: serum lithium level. In kind it is in vivo, human. As to conditions: subgroup n = 11 of 40 on 300 mg lithium carbonate/day + 20 mg citalopram (3 at 0.5, 3 at 0.6, 5 at 0.7); week 4.
Description: as §6

A value given as a limit tells only on which side of the number the result lay.

As to `CN(C)CCCC1(c2ccc(F)cc2)OCc2cc(C#N)ccc21` (stereo not shown) [Citalopram + Placebo, citalopram], the “CGI (Severity), Mean (SD)” value in data set [1] (Baseline) is listed as 4.9 (0.8). Also, in data set [1] (End of Study (week 4, LOCF)), the “CGI (Severity), Mean (SD)” value is listed as 3.3 (1.8). Further, in data set [2], the “Mean Total MADRS Change Score” value is 9.8. Also, the “patients who discontinued participation because of Adverse Event” value in data set [3] is 1. Also, in data set [4] (all patients assigned, n = 40), the “# With Full S-STS Symptom Remission” value was determined as 6, the “# With No change in S-STS Symptoms” value is reported as 12, the “# with Worsening of S-STS Symptoms” value was determined as 2 and the “% With Full S-STS Symptom Remission” value was “(15%)”. Moreover, in data set [4] (all patients assigned, n = 40), the “% With No change in S-STS Symptoms” value was “(30%)”, the “% with Worsening of S-STS Symptoms” value was “(5%)” and the “Mean Total S-STS Change Score” value is listed as 4.8. In data set [4] (among the 64 completers), the “change in the mean total S-STS” value is 5.4±5.3. In data set [5] (Baseline), the “BSS, Mean (SD)” value is on record as 16.2 (6.7). In addition, in data set [5] (End of Study (week 4, LOCF)), the “BSS, Mean (SD)” value is on record as 9.1 (8.2). Further, the “BHS, Mean (SD)” value in data set [6] (Baseline) is given as 16.3 (3.4). Further, in data set [6] (End of Study (week 4, LOCF)), the “BHS, Mean (SD)” value was 11.8 (5.4). The “Adverse Events per Patient” value in data set [7] (all patients assigned, n = 40) is reported as 1.0. For the same compound, in data set [7] (n = 40 per arm, 4 weeks), the “Anxiousness, % of patients” value is recorded as 3%; the “Anxiousness, number of patients” value amounted to 1; the “Common Cold, % of patients” value is 5%; the “Common Cold, number of patients” value was 2. Besides, in data set [7] (n = 40 per arm, 4 weeks), the “Decreased Appetite, % of patients” value is on record as 5%; the “Decreased Appetite, number of patients” value turned out to be 2; the “Dizziness, % of patients” value was found to be 5%; the “Dizziness, number of patients” value is 2. For the same compound, in data set [7] (n = 40 per arm, 4 weeks), the “Headaches, % of patients” value is 1 (1%); the “Headaches, number of patients” value was 1 (1%); the “Nausea, % of patients” value was found to be 3%; the “Nausea, number of patients” value is 5. Also, in data set [7] (n = 40 per arm, 4 weeks), the “Restlessness, % of patients” value is given as 5%; the “Restlessness, number of patients” value came to 2; the “Somnolence, % of patients” value was 18%; the “Somnolence, number of patients” value stood at 7. Further, in data set [7] (n = 40 per arm, 4 weeks), the “Total Events (most frequent and serious adverse events)” value was determined as 23; the “Vomiting, % of patients” value is given as 3%; the “Vomiting, number of patients” value was found to be 1.

As to `[Li]` [lithium], the serum lithium level in data set [8] is at least 0.5 mEq/L.

The values above are taken from US20120258172A1, “Compositions For The Treatment of Central Nervous System Disorders Including Depression Employing Novel Drug Combination Therapy To Reduce Suicidality In Patients” (priority 2010, published 2012).
